Where two headings read alike, the source gives them in different places.
Experiments:
c-kit = molecular target: T1, c-kit (Homo sapiens, UniProt P10721); assay: Inhibitory activity against c-kit autophosphorylation (MO7e cells, h-SCF); format: cell-based; settings: for IC50: MO7e cells, read-out: c-kit IC50; for inhibition at 1 µM: Mo7e, at 1000 nM
T1 construct: MO7e (human megakaryocytic leukemia cell line) which had been arrested for 20 hr; endogenous in cells; host or cells: MO7e human megakaryocytic leukemia cell line
T1 sequence (P10721 26-976): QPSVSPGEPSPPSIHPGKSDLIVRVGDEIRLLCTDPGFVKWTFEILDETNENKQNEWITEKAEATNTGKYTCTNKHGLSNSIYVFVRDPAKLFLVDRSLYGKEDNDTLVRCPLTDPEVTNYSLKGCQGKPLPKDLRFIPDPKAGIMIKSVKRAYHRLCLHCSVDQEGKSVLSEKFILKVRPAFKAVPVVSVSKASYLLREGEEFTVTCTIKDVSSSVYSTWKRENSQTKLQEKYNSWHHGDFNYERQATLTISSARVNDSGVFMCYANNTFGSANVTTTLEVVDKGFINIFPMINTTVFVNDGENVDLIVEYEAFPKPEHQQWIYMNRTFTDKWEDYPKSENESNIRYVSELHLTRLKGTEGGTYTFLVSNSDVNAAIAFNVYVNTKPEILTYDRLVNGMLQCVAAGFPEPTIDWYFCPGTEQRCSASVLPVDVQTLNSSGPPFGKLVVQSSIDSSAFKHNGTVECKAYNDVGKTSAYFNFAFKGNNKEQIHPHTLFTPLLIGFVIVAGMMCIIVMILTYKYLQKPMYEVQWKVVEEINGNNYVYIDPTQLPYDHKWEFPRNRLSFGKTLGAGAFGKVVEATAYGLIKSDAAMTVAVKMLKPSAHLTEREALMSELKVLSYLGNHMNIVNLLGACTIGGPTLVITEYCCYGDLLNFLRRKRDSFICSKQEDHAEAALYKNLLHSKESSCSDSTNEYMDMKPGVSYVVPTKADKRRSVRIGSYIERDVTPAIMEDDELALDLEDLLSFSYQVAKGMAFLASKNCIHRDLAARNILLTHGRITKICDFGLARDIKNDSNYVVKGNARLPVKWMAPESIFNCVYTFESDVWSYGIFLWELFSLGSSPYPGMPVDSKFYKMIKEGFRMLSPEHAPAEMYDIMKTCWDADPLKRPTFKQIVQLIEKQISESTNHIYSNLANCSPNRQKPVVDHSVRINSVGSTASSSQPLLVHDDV
Outline: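 MO7e human megakaryocytic leukemia cells, arrested 20 hr, treated with compound 1 hr, then stimulated with 50 ng/ml h-SCF for 5 min and lysed. Lysates captured on immobilized anti-phosphotyrosine antibody, detected with anti-c-kit primary and HRP secondary antibody; absorbance at 450 nm.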

PDGF-Ra = molecular target: T2, PDGF-Ra (Homo sapiens, UniProt P16234); assay: Inhibitory activity against PDGF-Ra phosphorylation by PDGF-AA stimulation using G292; format: cell-based; settings: for IC50: > means inhibition at indicated concentration not more than 50%, < and << not less than 50%, read-out: PDGF (E) IC50; for inhibition at 0.1 µM: G292, at 100 nM, read-out: PDGF (E) inhibition (%) at 100 nM
T2 construct: host or cells: G-292 human osteosarcoma cells
T2 sequence (P16234 24-1089): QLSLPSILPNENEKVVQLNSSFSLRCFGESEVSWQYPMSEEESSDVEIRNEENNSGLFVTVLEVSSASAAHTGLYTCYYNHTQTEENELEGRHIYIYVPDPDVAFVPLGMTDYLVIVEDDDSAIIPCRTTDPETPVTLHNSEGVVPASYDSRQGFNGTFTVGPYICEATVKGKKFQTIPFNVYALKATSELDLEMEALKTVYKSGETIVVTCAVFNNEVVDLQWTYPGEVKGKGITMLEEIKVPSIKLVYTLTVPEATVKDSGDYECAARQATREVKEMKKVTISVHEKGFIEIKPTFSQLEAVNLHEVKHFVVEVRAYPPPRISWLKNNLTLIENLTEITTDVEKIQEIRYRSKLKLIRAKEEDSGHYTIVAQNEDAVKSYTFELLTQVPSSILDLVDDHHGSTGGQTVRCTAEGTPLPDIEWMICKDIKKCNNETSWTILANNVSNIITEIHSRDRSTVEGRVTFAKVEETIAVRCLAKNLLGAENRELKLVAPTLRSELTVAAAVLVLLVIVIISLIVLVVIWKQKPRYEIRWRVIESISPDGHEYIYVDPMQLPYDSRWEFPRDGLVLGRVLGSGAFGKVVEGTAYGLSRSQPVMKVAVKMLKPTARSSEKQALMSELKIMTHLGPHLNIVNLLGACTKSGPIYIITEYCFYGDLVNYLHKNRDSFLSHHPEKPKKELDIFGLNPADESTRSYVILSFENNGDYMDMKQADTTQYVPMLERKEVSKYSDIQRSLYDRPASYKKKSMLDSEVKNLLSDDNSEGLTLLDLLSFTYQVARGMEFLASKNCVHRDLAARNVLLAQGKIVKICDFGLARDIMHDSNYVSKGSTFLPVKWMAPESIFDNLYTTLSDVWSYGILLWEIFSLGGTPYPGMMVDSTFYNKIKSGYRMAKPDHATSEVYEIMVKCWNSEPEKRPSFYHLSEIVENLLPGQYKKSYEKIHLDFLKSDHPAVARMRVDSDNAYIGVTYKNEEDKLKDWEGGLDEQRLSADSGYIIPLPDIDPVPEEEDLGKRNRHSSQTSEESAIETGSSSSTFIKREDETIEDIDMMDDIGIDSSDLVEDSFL
Outline: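 In G-292 osteosarcoma cells kept overnight in 0.1% FBS, compound exposure (1 hr, 37 °C) preceded PDGF-AA stimulation at 50 ng/ml for 5 min; receptor phosphotyrosine was then detected by PY-20 capture ELISA.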

[1] = figure within parentheses in −( ) or >1000( )
[2] = figure within parentheses in >100( )

| SMILES | IC50 (PDGF-Ra) [nM] | IC50 (c-kit; h-SCF 50 ng/ml) [nM] | IC50 (PDGF-Ra; Pharmacological Test Example 1) [nM] | further results |
| --- | --- | --- | --- | --- |
| COc1cc2nccc(Oc3ccc(NC(=S)NC(=O)c4ccc5c(c4)OCO5)cc3)c2cc1OC [Example 989, N-(1,3-Benzodioxol-5-ylcarbonyl)-N′-{4-[(6,7-dimethoxy-4-quinolyl)oxy]phenyl}thiourea] | 14 | – | – | IC50 (c-kit; h-SCF stimulation): 425 nM |
| COc1cc2nccc(Oc3cc(C)c(NC(=O)OCCC4CCCCC4)cc3C)c2cc1OC [Example 354, 2-Cyclohexylethyl N-{4-[(6,7-dimethoxy-4-quinolyl)oxy]-2,5-dimethylphenyl}carbamate] | – | 384 | 15 | – |
| COc1cc2ncnc(Oc3ccc(NC(=O)OC4CCCCC4)c(Cl)c3)c2cc1OC [Example 313] | – | 330 | < 10 | – |
| COc1cc2ncnc(Oc3ccc(N(C)C(=O)OC4CCCCC4)c(Cl)c3)c2cc1OC [Example 474, Cyclohexyl N-{2-chloro-4-[(6,7-dimethoxy-4-quinazolinyl)oxy]phenyl}-N-methylcarbamate] | 46 | – | – | inhibition at 1 µM (c-kit; [1]): 6% |
| COc1cc2nccc(Oc3ccc(NC(=O)OCCCOc4ccccc4Cl)cc3)c2cc1OC [Example 26, 3-(2-Chlorophenoxy)propyl N-{4-[(6,7-dimethoxy-4-quinolyl)oxy]phenyl}carbamate] | – | 44 | < 10 | – |
| COc1cc2nccc(Oc3cc(C)c(NC(=S)NCCN(C(C)C)C(C)C)cc3C)c2cc1OC [Example 555, N-{4-[(6,7-Dimethoxy-4-quinolyl)oxy]-2,5-dimethylphenyl}-N′-(2-diisopropylaminoethyl)thiourea] | > 100 | – | – | inhibition at 1 µM (c-kit; [1]): 39%; inhibition at 0.1 µM (PDGF-Ra; [2]): 29% |
| COc1cc2ncnc(Oc3ccc(NC(=S)NCc4ccccc4)cc3)c2cc1OC [Example 707, N-Benzyl-N′-{4-[(6,7-dimethoxy-4-quinazolinyl)oxy]phenyl}thiourea] | 17 | – | – | IC50 (c-kit; 50 ng/ml h-SCF): 209 nM |
| COc1cc2nccc(Oc3ccc(NC(=S)NC(=O)c4ccc(CCl)cc4)cc3)c2cc1OC [Example 1136, N-[4-(Chloromethyl)benzoyl]-N′-{4-[(6,7-dimethoxy-4-quinolyl)oxy]phenyl}thiourea] | 14 | – | – | IC50 (c-kit; h-SCF stimulation): 639 nM |
| COc1cccc(OCCCOC(=O)Nc2ccc(Oc3ccnc4cc(OC)c(OC)cc34)c(C)c2C)c1 [Example 162, 3-(3-Methoxyphenoxy)propyl N-{4-[(6,7-dimethoxy-4-quinolyl)oxy]-2,3-dimethylphenyl}carbamate] | – | 162 | 16 | – |
| COc1cccc(OC(=O)Nc2ccc(Oc3ccnc4cc(OC)c(OC)cc34)c(C)c2C)c1 [Example 291, 3-Methoxyphenyl N-{4-[(6,7-dimethoxy-4-quinolyl)oxy]-2,3-dimethylphenyl}carbamate] | – | 124 | 26 | – |
| COc1cc2ncnc(Oc3ccc(NC(=O)NCCN4CCOCC4)c([N+](=O)[O-])c3)c2cc1OC [Example 652, N-{4-[(6,7-Dimethoxy-4-quinazolinyl)oxy]-2-nitrophenyl}-N′-(2-morpholinoethyl)urea] | 43 | – | – | IC50 (c-kit; 50 ng/ml h-SCF): 115 nM |
| COc1cc2nccc(Oc3ccc(NC(=O)OCCCOc4ccccc4Cl)c(C)c3C)c2cc1OC [Example 17, 3-(2-Chlorophenoxy)propyl N-{4-[(6,7-dimethoxy-4-quinolyl)oxy]-2,3-dimethylphenyl}carbamate] | – | 57 | < 10 | – |
| COc1cc2nccc(Oc3ccc(NC(=O)Oc4c(C)cccc4C)c(C)c3C)c2cc1OC [Example 271, 2,6-Dimethylphenyl N-(4-[(6,7-dimethoxy-4-quinolyl)oxy]-2,3-dimethylphenyl}carbamate] | – | 130 | 22 | – |
| COc1cc2ncnc(Oc3ccc(NC(=S)NCCCn4ccnc4)cc3)c2cc1OC [Example 526, N-{4-[(6,7-Dimethoxy-4-quinazolinyl)oxy]phenyl}-N′-[3-(1-imidazoyl)propyl]thiourea] | > 100 | – | – | IC50 (c-kit; 50 ng/ml h-SCF): 731 nM; inhibition at 0.1 µM (PDGF-Ra; [2]): 46% |
| C=C(C)COC(=O)Nc1ccc(Oc2ccnc3cc(OC)c(OC)cc23)c(C)c1C [Example 406, 2-Methylallyl N-{4-[(6,7-dimethoxy-4-quinolyl)oxy]-2,3-dimethylphenyl}carbamate] | < 10 | – | – | IC50 (c-kit; 50 ng/ml h-SCF): < 30 nM |
| COc1cc2nccc(Oc3ccc(NC(=S)NC(=O)CC4CCCCC4)cc3Cl)c2cc1OC [Example 704, N-{3-Chloro-4-[(6,7-dimethoxy-4-quinolyl)oxy]phenyl}-N′-(2-cyclohexylacetyl)thiourea] | 16 | – | – | IC50 (c-kit; 50 ng/ml h-SCF): 177 nM |
| CCCCc1ccc(OC(=O)Nc2cc(C)c(Oc3ccnc4cc(OC)c(OC)cc34)cc2C)cc1 [Example 272, 4-Butylphenyl N-{4-[(6,7-dimethoxy-4-quinolyl)oxy]-2,5-dimethylphenyl}carbamate] | – | 297 | 61 | – |
| COc1cc2nccc(Oc3ccc(NC(=S)NC(=O)c4ccc(C)cc4)c(Cl)c3)c2cc1OC [Example 1102, N-{2-Chloro-4-[(6,7-dimethoxy-4-quinolyl)oxy]phenyl}-N′-(4-methylbenzoyl)thiourea] | > 100 | – | – | inhibition at 1 µM (c-kit; figure in parentheses in −( )): 11%; inhibition at 0.1 µM (PDGF-Ra; figure in parentheses in >100( )): 38% |
| COc1cc2ncnc(Oc3ccc(NC(=O)OCC4CCCCCC4)c(Cl)c3)c2cc1OC [Example 352, Cycloheptylmethyl N-{2-chloro-4-[(6,7-dimethoxy-4-quinazolinyl)oxy]phenyl}carbamate] | – | 195 | < 10 | – |
| CCCC(C)C(=O)NC(=S)Nc1ccc(Oc2ccnc3cc(OC)c(OC)cc23)c(Cl)c1 (stereo not drawn) [Example 1200, N-{3-Chloro-4-[(6,7-dimethoxy-4-quinolyl)oxy]phenyl}-N′-(2-methylpentanoyl)thiourea] | 25 | – | – | IC50 (c-kit; h-SCF stimulation): 716 nM |
| COc1cc2nccc(Oc3ccc(NC(=O)OCCCSc4ccc(C)cc4)c(C)c3C)c2cc1OC [Example 38] | – | 33 | < 10 | – |
| COc1cccc(OCCCOc2ccc(Oc3ncnc4cc(OC)c(OC)cc34)cc2)c1 [Example 809, 6,7-Dimethoxy-4-{4-[3-(3-methoxyphenoxy)propoxy]phenoxy}quinazoline] | < 10 | – | – | IC50 (c-kit; h-SCF stimulation): 73 nM |
| COc1cc2nccc(Oc3ccc(NC(=O)OC(C)c4ccccc4F)cc3)c2cc1OC (stereo not drawn) [Example 122, 1-(2-Fluorophenyl)ethyl N-{4-[(6,7-dimethoxy-4-quinolyl)oxy]phenyl}carbamate] | – | 821 | 11 | – |
| COc1cc2nccc(Oc3ccc(NC(=S)NC(=O)CCC4CCCC4)cc3F)c2cc1OC [Example 1029, N-(3-Cyclopentylpropanoyl)-N′-{4-[(6,7-dimethoxy-4-quinolyl)oxy]-3-fluorophenyl}thiourea] | 5 | – | – | IC50 (c-kit; h-SCF stimulation): 126 nM |
| COc1ccccc1COC(=O)Nc1cc(C)c(Oc2ccnc3cc(OC)c(OC)cc23)cc1C [Example 239, 2-Methoxybenzyl N-{4-[(6,7-dimethoxy-4-quinolyl)oxy]-2,5-dimethylphenyl}carbamate] | – | 183 | 9 | – |
| COc1cc2nccc(Oc3ccc(NC(=O)OC(C)c4cc(F)c(F)cc4F)c(C)c3C)c2cc1OC (stereo not drawn) [Example 93, 1-(2,4,5-Trifluorophenyl)ethyl N-{4-[(6,7-dimethoxy-4-quinolyl)oxy]-2,3-dimethylphenyl}carbamate] | – | 601 | 17 | – |
| COc1cc2nccc(Oc3ccc(N(C)C(=O)OCC4CCCCCC4)cc3)c2cc1OC [Example 483, Cycloheptylmethyl N-{4-[(6,7-dimethoxy-4-quinolyl)oxy]phenyl}-N-methylcarbamate] | 20 | – | – | IC50 (c-kit; 50 ng/ml h-SCF): < 30 nM |
